How the values were obtained:
rat [1] = conditions: Prenatal developmental toxicity study, sprague dawley, Oral, Gavage/Intubation, dose end: 15 GD
rat [2] = conditions: Subchronic dermal toxicity, sprague dawley, Topical, dose end: 13 week, group: systemic, systemic / in life observation / clinical signs / erythema
dog [3] = conditions: Subchronic oral toxicity in nonrodent, beagle, Feed, dose end: 3 month, group: systemic
mouse [4] = conditions: Subchronic oral toxicity in rodents, cd1, Feed, dose end: 3 month, group: systemic
rat [5] = conditions: Multigenerational reproductive toxicity study, sprague dawley, Oral, Feed, dose end: 2 generation
dog [6] = conditions: Chronic toxicity, beagle, Oral, Feed, dose end: 52 week, group: systemic
mouse [7] = conditions: Carcinogenicity; cd1; Oral; Feed; dose end: 78 week; group: systemic; systemic / organ weight / liver / nos + systemic / pathology microscopic / liver / hypertrophy + systemic / pathology microscopic / liver / …
rat [8] = conditions: Combined chronic toxicity/carcinogenicity, sprague dawley, Oral, Feed, dose end: 2 year, group: systemic
rat [9] = conditions: Prenatal developmental toxicity study, other, Oral, Gavage/Intubation, dose end: 15 GD
rat [10] = conditions: Subchronic oral toxicity in rodents, Feed, dose end: 13 week, group: systemic
rabbit [11] = conditions: Prenatal developmental toxicity study, chinchilla, Oral, Gavage/Intubation, dose end: 18 GD
mouse [12] = conditions: Combined chronic toxicity/carcinogenicity, b6c3f1, Oral, Feed, dose end: 102 week
mouse [13] = conditions: Combined chronic toxicity/carcinogenicity, b6c3f1, Oral, Feed, dose end: 2 year, group: systemic
dog [14] = conditions: Chronic toxicity; beagle; Oral; Feed; dose end: 53 week; group: cholinesterase; cholinesterase / cholinesterase / cholinesterase / erythrocyte cholinesterase (che) + cholinesterase / cholinesterase / cholinesterase / …
rat [15] = conditions: Combined chronic toxicity/carcinogenicity, fischer, Oral, Feed, dose end: 2 year
rat [16] = conditions: Subchronic oral toxicity in rodents, fischer, Feed, dose end: 13 week, group: systemic, systemic / in life observation / body weight / body weight
rabbit [17] = conditions: Prenatal developmental toxicity study, dutch, Oral, Gavage/Intubation, dose end: 18 GD
rat [18] = conditions: Multigenerational reproductive toxicity study, sprague dawley, Oral, Feed, dose end: 2 generation; remark: listed apart in the source
[19] = group: developmental, systemic / in life observation / body weight / fetal weight
[20] = group: maternal, reproductive / reproductive performance / resorptions / resorptions
[21] = group: maternal, systemic / in life observation / body weight / body weight gain + systemic / in life observation / clinical signs / abnormal movements + …
[22] = systemic / pathology microscopic / liver / hypertrophy
[23] = systemic / pathology microscopic / liver / hypertrophy + systemic / clinical chemistry / alkaline phosphatase (alp/alk) / alkaline …
[24] = systemic / pathology microscopic / liver / hypertrophy + systemic / clinical chemistry / alanine aminotransferase (alt/sgpt) / alanine …
[25] = group: offspring, developmental / offspring survival late / viability index / viability index + systemic / in life observation / body weight / offspring (pup…
[26] = group: parental, systemic / in life observation / body weight / body weight + systemic / in life observation / food consumption / food consumption + systemic…
[27] = group: reproductive, reproductive / reproductive performance / dystocia / dystocia + reproductive / reproductive performance / gestational length / gestational …
[28] = systemic / in life observation / body weight / body weight gain
[29] = systemic / in life observation / body weight / body weight gain + systemic / clinical chemistry / alkaline phosphatase (alp/alk) / alkaline …
[30] = systemic / hematology / hematocrit (hct) / hematocrit (hct) + systemic / hematology / hemoglobin (hgb) / hemoglobin (hgb) + systemic / …
[31] = group: developmental, developmental / developmental malformation / bone / short supernumerary + systemic / in life observation / body weight / fetal weight
[32] = group: maternal, reproductive / reproductive performance / implantations / implantations + reproductive / reproductive performance / resorptions / …
[33] = systemic / pathology microscopic / liver / vacuolization
[34] = systemic / pathology microscopic / liver / vacuolization + systemic / clinical chemistry / cholesterol / cholesterol + systemic / clinical …
[35] = group: maternal, reproductive / reproductive performance / resorptions / resorptions + reproductive / reproductive performance / aborted / aborted + …
[36] = group: cholinesterase, cholinesterase / cholinesterase / cholinesterase / plasma cholinesterase (che)
[37] = group: systemic, systemic / in life observation / body weight / body weight
[38] = group: systemic, systemic / in life observation / body weight / body weight + systemic / clinical chemistry / cholesterol / cholesterol + systemic / organ …
[39] = systemic / in life observation / clinical signs / fur (altered appearance) + systemic / pathology microscopic / skin / fibrosarcoma + …
[40] = systemic / pathology microscopic / skin / fibrosarcoma + systemic / pathology microscopic / skin / rhabdomyosarcoma + systemic / in life …
[41] = group: cholinesterase, cholinesterase / cholinesterase / cholinesterase / brain cholinesterase (che) + cholinesterase / cholinesterase / cholinesterase / …
[42] = group: systemic, systemic / in life observation / clinical signs / alopecia + systemic / in life observation / clinical signs / soft stools + systemic / in …
[43] = group: developmental, systemic / in life observation / body weight / fetal weight + developmental / developmental malformation / bone / unossified
[44] = group: maternal, systemic / in life observation / clinical signs / soft stools
[45] = group: maternal, systemic / in life observation / clinical signs / soft stools + reproductive / reproductive performance / resorptions / resorptions + …
[46] = group: offspring, developmental / offspring survival late / [other] / [other] + developmental / offspring survival late / viability index / viability index + …
[47] = group: parental, systemic / pathology microscopic / epididymis / vacuolization
[48] = group: parental, systemic / pathology microscopic / epididymis / vacuolization + systemic / organ weight / epididymis / absolute
[49] = group: reproductive, reproductive / offspring survival early / birth index / birth index + reproductive / reproductive performance / fertility / fertility + …

## O=[N+]([O-])C(CO)(CO)CO [2-(Hydroxymethyl)-2-nitro-1,3-propanediol]
Rat [1]; [19]
  LEL: 750 mg/kg/day
  LOAEL: > 750 mg/kg/day
  NEL: 375 mg/kg/day
  NOAEL: ≥ 750 mg/kg/day
Rat [1]; [20]
  LEL: 375 mg/kg/day
Rat [1]; [21]
  LOAEL: 750 mg/kg/day
  NEL: 50 mg/kg/day
  NOAEL: 375 mg/kg/day
Rat [2]
  LEL: 1000 mg/kg/day
  LOAEL: > 1000 mg/kg/day
  NEL: 500 mg/kg/day
  NOAEL: ≥ 1000 mg/kg/day

## N#CC(CCc1ccc(Cl)cc1)(Cn1cncn1)c1ccccc1 (stereo not given) [Fenbuconazole]
Dog [3]; [22]
  LOAEL: 13.3 mg/kg/day
Dog [3]; [23]
  NEL: 3.3 mg/kg/day
  NOAEL: 3.3 mg/kg/day
Dog [3]; systemic / pathology microscopic / liver / hypertrophy + systemic / organ weight / liver / absolute + systemic / organ weight / liver / …
  LEL: 13.3 mg/kg/day
Mouse [4]; [22]
  LEL: 11.1 mg/kg/day
  LOAEL: 11.1 mg/kg/day
Mouse [4]; [24]
  NEL: 3.8 mg/kg/day
  NOAEL: 3.8 mg/kg/day
Rat [5]; [25]
  LEL: 40 mg/kg/day
  LOAEL: 40 mg/kg/day
  NEL: 4 mg/kg/day
  NOAEL: 4 mg/kg/day
Rat [5]; [26]
  LOAEL: 40 mg/kg/day
  NEL: 0.4 mg/kg/day
  NOAEL: 4 mg/kg/day
Rat [5]; group: parental, systemic / organ weight / liver / absolute + systemic / organ weight / liver / relative to body weight
  LEL: 4 mg/kg/day
Rat [5]; [27]
  LEL: 40 mg/kg/day
  LOAEL: 40 mg/kg/day
  NEL: 4 mg/kg/day
  NOAEL: 4 mg/kg/day
Dog [6]; [28]
  LEL: 3.75 mg/kg/day
  LOAEL: 3.75 mg/kg/day
Dog [6]; [29]
  NEL: 0.38 mg/kg/day
  NOAEL: 0.38 mg/kg/day
Mouse [7]
  LEL: 26.3 mg/kg/day
  LOAEL: 26.3 mg/kg/day
  NEL: 1.28 mg/kg/day
  NOAEL: 1.28 mg/kg/day
Rat [8]; systemic / hematology / hematocrit (hct) / hematocrit (hct) + systemic / hematology / hemoglobin (hgb) / hemoglobin (hgb)
  LEL: 3.03 mg/kg/day
Rat [8]; [30]
  NEL: 0.31 mg/kg/day
  NOAEL: 3.03 mg/kg/day
Rat [8]; systemic / pathology microscopic / thyroid gland / adenoma/carcinoma combined + systemic / organ weight / liver / absolute + systemic / …
  LOAEL: 30.6 mg/kg/day
Rat [9]; [31]
  LEL: 150 mg/kg/day
  LOAEL: > 150 mg/kg/day
  NEL: 75 mg/kg/day
  NOAEL: ≥ 150 mg/kg/day
Rat [9]; [32]
  LEL: 75 mg/kg/day
  LOAEL: 75 mg/kg/day
  NEL: 30 mg/kg/day
  NOAEL: 30 mg/kg/day
Rat [10]; [33]
  LEL: 5.1 mg/kg/day
  LOAEL: 5.1 mg/kg/day
Rat [10]; [34]
  NEL: 1.3 mg/kg/day
  NOAEL: 1.3 mg/kg/day

## COP(=S)(OC)Oc1ccc(SC)c(C)c1 [Fenthion]
Rabbit [11]; [19]
  LEL: 18 mg/kg/day
  LOAEL: 18 mg/kg/day
  NEL: 6 mg/kg/day
  NOAEL: 6 mg/kg/day
Rabbit [11]; [20]
  LEL: 6 mg/kg/day
  LOAEL: 6 mg/kg/day
Rabbit [11]; [35]
  NEL: 2 mg/kg/day
  NOAEL: 2 mg/kg/day
Mouse [12]; [36]
  LEL: 0.03 mg/kg/day
  LOAEL: 0.03 mg/kg/day
  NEL: < 0.03 mg/kg/day
  NOAEL: < 0.03 mg/kg/day
Mouse [12]; [37]
  LEL: 1.95 mg/kg/day
  LOAEL: 1.95 mg/kg/day
Mouse [12]; [38]
  NEL: 0.4 mg/kg/day
  NOAEL: 0.4 mg/kg/day
Mouse [13]; [39]
  LOAEL: > 3 mg/kg/day
  NOAEL: ≥ 3 mg/kg/day
Mouse [13]; [40]
  LEL: 1.5 mg/kg/day
  NEL: < 1.5 mg/kg/day
Dog [14]
  LEL: 0.258 mg/kg/day
  LOAEL: 0.258 mg/kg/day
  NEL: 0.056 mg/kg/day
  NOAEL: 0.056 mg/kg/day
Rat [15]; [41]
  LEL: 0.07 mg/kg/day
  LOAEL: 0.07 mg/kg/day
  NEL: < 0.07 mg/kg/day
  NOAEL: < 0.07 mg/kg/day
Rat [15]; [42]
  LEL: 0.3 mg/kg/day
  LOAEL: 0.3 mg/kg/day
  NEL: 0.07 mg/kg/day
  NOAEL: 0.07 mg/kg/day
Rat [16]
  LEL: 16 mg/kg/day
  LOAEL: 16 mg/kg/day
  NEL: 8 mg/kg/day
  NOAEL: 8 mg/kg/day
Rabbit [17]; [41]
  LEL: 2.75 mg/kg/day
  LOAEL: 2.75 mg/kg/day
  NEL: 1 mg/kg/day
  NOAEL: 1 mg/kg/day
Rabbit [17]; [19]
  LEL: 2.75 mg/kg/day
Rabbit [17]; [43]
  LOAEL: > 7.5 mg/kg/day
  NEL: 1 mg/kg/day
  NOAEL: ≥ 7.5 mg/kg/day
Rabbit [17]; [44]
  LEL: 2.75 mg/kg/day
  LOAEL: 2.75 mg/kg/day
Rabbit [17]; [45]
  NEL: 1 mg/kg/day
  NOAEL: 1 mg/kg/day
Rat [18]; [41]
  LEL: 0.7 mg/kg/day
  LOAEL: 0.7 mg/kg/day
  NEL: 0.1 mg/kg/day
  NOAEL: 0.1 mg/kg/day
Rat [18]; [46]
  LEL: 5 mg/kg/day
  LOAEL: > 5 mg/kg/day
  NEL: 0.7 mg/kg/day
  NOAEL: ≥ 5 mg/kg/day
Rat [18]; [47]
  LEL: 0.7 mg/kg/day
  LOAEL: 0.7 mg/kg/day
Rat [18]; [48]
  NEL: 0.1 mg/kg/day
  NOAEL: 0.1 mg/kg/day
Rat [18]; [49]
  LEL: 5 mg/kg/day
  LOAEL: > 5 mg/kg/day
  NEL: 0.7 mg/kg/day
  NOAEL: ≥ 5 mg/kg/day

From EPA's ToxRefDB 2
